Converted amounts (≈) assume the structure as drawn.
Tests used:
human IRAK4 = human IRAK4 (Homo sapiens (Human), UniProt Q9NWZ3); test: IRAK4 enzymatic assay (Transcreener fluorescence polarization, ADP detection); assay type: biochemical; conditions: recombinant full-length IRAK4; 125 uM ATP; 90 min
Experimental: Compounds were assayed for inhibition of human IRAK4 and IRAK1 catalytic activity using recombinant enzyme produced from insect cells. Full-length IRAK4 protein, carrying an N-terminal His6-Tag, was obtained from Life Technologies (Carlsbad, Calif., USA). The IRAK1 construct was produced internally and was comprised of IRAK1 residues Arg194 to Ser712, preceded by an NH2-terminal His6 tag and the coding sequence for glutathione-S-transferase.
Kinase activities were assayed using the Transcreener-Fluorecescence polarization platform (BelBrook Labs, Madison, Wis., USA) that measures amounts of the reaction product, ADP. […] Final IRAK4 assay conditions were 1.25 nM IRAK4; 125 uM ATP; 10 uM MgC2; 125 uM peptide in reaction buffer (25 mM HEPES (pH7.4); 2 mM Dithiothreitol; 0.015% Brij-35; and 0.5% dimethyl sulfoxide. The IRAK1 activity was optimized similarly, yielding final assay conditions of […] IRAK1; 62.5 uM ATP; 5 uM MgCl2, and 62.5 uM IRAK1 peptide in reaction buffer for 60 min.
Assays of compounds for kinase inhibition were performed using inhibitors serially-diluted in dimethyl sulfoxide, which was accomplished with a LabCyte Echo 555 liquid dispenser. 384 well assay plates spotted with compound received 4 ul of a 2× substrate (ATP+peptide) mix in reaction buffer, followed by 4 ul of 2× enzyme diluted in reaction buffer. Reactions were halted at 60 (IRAK1) or 90 (IRAK4) min by addition of 6 ul of detection buffer, containing EDTA ([…] final concentration), 0.95 ug of the ADP-binding antibody ADP2, ADP tracer (3 nM final concentration), and […] HEPES. Following a 1 hr incubation, fluorescence polarization of the ADP2-antibody::TRACER complex was read on a Tecan M1000 plate reader using a 635/20 excitation filter in combination with a 670/20 emission filter. Delta milli-P values were analyzed using Genedata software to fit dose-response curves and compute compound Ki values, using ATP Km values of 642 um and 83.2 uM for IRAK4 and IRAK1, respectively. Table 3 provides IRAK4 Ki values for representative compounds of the present invention.

Kinetic solubility assay = assay type: physicochemical; conditions: for solubility kinetic at 24 h: PBS buffer with 2% DMSO, aqueous buffer, kinetic from dmso stock, PBS buffer pH 7.4, 2% DMSO, 24 hours shaking at room temperature, UHPLC-CLND; for Fold improvement in kinetic solubility: example compound versus its matched pair phenyl compound
Experimental: The kinetic solubility assay started with compound DMSO stock solutions. This assay used Millipore Multiscreen 96-well filter plates for the 24 hour equilibration shaking. Samples were prepared by adding 4 μL of the 10 mM compound DMSO stock solutions into 196 μL of PBS buffer pH 7.4 in the 96-well filter plates, yielding a compound concentration of 200 μM and 2% DMSO. The filter plate was sealed with aluminum sealing film and shaken at room temperature for 24 hours at 1000 rpm. When shaking has completed, the solutions were filtered into a clean 96-well plate utilizing a vacuum manifold. After filtration, some precipitate is often observed at the bottom of the filtration plate wells. Most of the precipitates appear to be crystalline under a polarizing light microscope. The filtrate samples were diluted by a factor of 2 using PBS pH7.4 buffer and then transferred to a 384-well plate for analysis by UHPLC-CLND (CLND: Chemiluminescence nitrogen detector). 5 μL of each sample was injected twice into the UHPLC-CLND for two repeat analysis.
Samples were detected and analyzed using UV 254 nm and CLND. UV 254 nm is used primarily to confirm the sample purity but in rare cases, is also used to quantify the concentration of compounds with no nitrogens, where additional work is done to create a compound specific calibration curve. The identification of CLND target peaks of each compound were confirmed by LCMS. Sample quantification was accomplished by CLND peak intensity, the calibration curve, and the number of nitrogen contained in the compound. One calibration curve of caffeine was used for solubility quantitative determination. A fresh calibration curve was created for every batch. The number of nitrogens in a compound used for this quantification was corrected for the actual configuration of the nitrogen in the compound.

[1] = Plasma protein binding using rapid equilibrium dialysis (RED); assay type: in vitro ADME; conditions: pH 7.4, human plasma, 37° C., read-out: Human PPB (converted)
Experimental: Plasma protein binding was measured in duplicate using rapid equilibrium dialysis (RED) device ((Thermo Scientific Pierce) in a 96-well format. Briefly, 10.0 μL drug or control compounds (0.5 mM in DMSO) was mixed with 1000 μL plasma (pH adjusted to 7.4) from various species (BioreclamationIVT). Aliquots of 300 μL drug/plasma mixture were placed into the donor side chamber of a single-use RED plate, and 500 μL aliquots of PBS buffer were placed into the adjacent chamber as the receiver side. The plate was incubated on an orbital shaker at 400 rpm, at 37° C. for 4 hours. After completion of incubation, 50 μL aliquots from the PBS buffer side were mixed with 5 μL of blank plasma matrix, and 5 μL from the donor side (plasma) were mixed with 50 μL blank PBS buffer. All samples were then crashed with 200 μL acetonitrile (containing internal standard) to precipitate plasma proteins. The samples were centrifuged at 3750 rpm for 10 min to pellet the proteins. The supernatants were carefully transferred to a fresh 96-well plate, and diluted with an equivalent volume of water. The samples were then analyzed by LC-MS/MS (ABI 4000, ABI Sciex). Data acquisition and processing was performed with Analyst 1.6.1 and Multiquant 2.1. The percent of protein binding and fraction unbound (fu) in matrix was calculated from taking the ratio of responses (peak areas) on the receiver side (buffer) to those on the donor side (plasma). The ratios were normalized to the internal standard.

Sequence of human IRAK4 (Q9NWZ3 whole entry, the tested form may be a part): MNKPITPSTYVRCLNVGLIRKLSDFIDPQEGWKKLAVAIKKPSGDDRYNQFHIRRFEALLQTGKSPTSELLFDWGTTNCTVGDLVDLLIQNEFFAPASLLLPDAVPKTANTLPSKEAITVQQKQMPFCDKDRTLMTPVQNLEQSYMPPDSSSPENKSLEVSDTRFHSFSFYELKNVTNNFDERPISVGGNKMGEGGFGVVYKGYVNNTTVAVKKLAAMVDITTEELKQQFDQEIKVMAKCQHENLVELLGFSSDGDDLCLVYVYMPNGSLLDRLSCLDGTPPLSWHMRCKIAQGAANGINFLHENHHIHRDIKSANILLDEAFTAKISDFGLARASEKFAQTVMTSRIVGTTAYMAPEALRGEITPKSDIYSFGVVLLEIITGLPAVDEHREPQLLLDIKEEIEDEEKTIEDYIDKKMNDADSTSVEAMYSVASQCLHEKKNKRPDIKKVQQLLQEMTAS

Row | Ki (human IRAK4) [nM] | solubility kinetic at 24 h (Kinetic solubility assay) [µM] | Fold improvement in kinetic solubility (Kinetic solubility assay) | fraction unbound at 4 h, 5 µM [1] | SMILES
1 | 45 | 137 (≈ 56.2 µg/mL) | – | – | C[C@@]1(CO)Cc2cc(NC(=O)c3cnn4cccnc34)c(N3CCOCC3)nc2O1 (single isomer, unassigned) [Example 11]
2 | 91 | – | – | – | CC(C)(O)[C@]1(C)Cc2cc(NC(=O)c3cnn4cccnc34)c(N3CCOCC3)nc2O1 (single isomer, unassigned) [Example 13]
3 | 48 | – | – | – | CC(C)(O)[C@@]1(C)Cc2cc(NC(=O)c3cnn4cccnc34)c(N3CCOCC3)nc2O1 (single isomer, unassigned) [Example 14]
4 | 88 | 159 (≈ 65.3 µg/mL) | 15.9 | – | CC1(CO)Cc2cc(NC(=O)c3cnn4cccnc34)c(N3CCOCC3)nc2O1 (stereo in doubt) [Example 10, (S)—N-(2-(Hydroxymethyl)-2-methyl-6-morpholino-2,3-dihydrofuro[2,3-b]pyridin-5-yl)pyrazolo[1,5-a]pyrimidine-3-carboxamide]
5 | – | – | 13.7 | – | CC1(CO)Cc2cc(NC(=O)c3cnn4cccnc34)c(N3CCOCC3)nc2O1 (stereo in doubt) [Example 11, (R)—N-(2-(hydroxymethyl)-2-methyl-6-morpholino-2,3-dihydrofuro[2,3-b]pyridin-5-yl)pyrazolo[1,5-a]pyrimidine-3-carboxamide]
6 | 39 | 166 (≈ 65.5 µg/mL) | 166.0 | 0.143 | CC1(C)Cc2cc(NC(=O)c3cnn4cccnc34)c(N3CCOCC3)nc2O1 [Example 1, N-(2,2-dimethyl-6-morpholino-2,3-dihydrofuro[2,3-b]pyridin-5-yl)pyrazolo[1,5-a]pyrimidine-3-carboxamide]
7 | 33 | – | – | – | CC1(C)Cc2cc(NC(=O)c3cnn4cccnc34)c(N3CCN(CCO)CC3)nc2O1 [Example 4, N-(6-(4-(2-Hydroxyethyl)piperazin-1-yl)-2,2-dimethyl-2,3-dihydrofuro[2,3-b]pyridin-5-yl)pyrazolo[1,5-a]pyrimidine-3-carboxamide]
8 | 540 | 39 (≈ 15.3 µg/mL) | 5.7 | – | CN1Cc2cc(NC(=O)c3cnn4cccnc34)c(N3CCOCC3)nc2C1=O [Example 12, N-(6-Methyl-2-morpholino-7-oxo-6,7-dihydro-5H-pyrrolo[3,4-b]pyridin-3-yl)pyrazolo[1,5-a]pyrimidine-3-carboxamide]

The remaining lines, values behind:

Row | SMILES | Ki (human IRAK4) [nM] | solubility kinetic at 24 h (Kinetic solubility assay) [µM] | Fold improvement in kinetic solubility (Kinetic solubility assay) | fraction unbound at 4 h, 5 µM [1]
9 | CC1(C)Cc2cc(NC(=O)c3cnn4cccnc34)c(N3CCOC[C@H]3CO)nc2O1 (single isomer, unassigned) [Example 7] | 2400 | – | – | –
10 | CC1(C)Cc2cc(NC(=O)c3cnn4cccnc34)c(N3CCOC[C@@H]3CO)nc2O1 (single isomer, unassigned) [Example 8] | 820 | – | – | –
11 | Cc1cnc2c(C(=O)Nc3cc4c(nc3N3CCN(CC(N)=O)CC3)O[C@](C)(CO)C4)cnn2c1 (single isomer, unassigned) [Example 15] | 6.6 | – | – | –
12 | Cc1cnc2c(C(=O)Nc3cc4c(nc3N3CCN(CC(N)=O)CC3)O[C@@](C)(CO)C4)cnn2c1 (single isomer, unassigned) [Example 16] | 5.5 | – | – | –
13 | C[C@]1(O)COc2nc(N3CCN(CC(F)F)CC3)c(NC(=O)c3cnn4cccnc34)cc2C1 (stereo in doubt) [Example 18, N-[rac-(3R)-7-[4-(2,2-difluoroethyl)piperazin-l-yl]-3-hydroxy-3-methyl-2,4-dihydropyrano[2,3-b]pyridin-6-yl]pyrazolo[1,5-a]pyrimidine-3-carboxamide] | 210 | 167 (≈ 79.1 µg/mL) | 12.8 | –
14 | C[C@@]1(O)COc2nc(N3CCN(CC(F)F)CC3)c(NC(=O)c3cnn4cccnc34)cc2C1 (stereo in doubt) [Example 19, N-[rac-(3S)-7-[4-(2,2-difluoroethyl)piperazin-l-yl]-3-hydroxy-3-methyl-2,4-dihydropyrano[2,3-b]pyridin-6-yl]pyrazolo[1,5-a[pyrimidine-3-carboxamide] | 31 | 177 (≈ 83.8 µg/mL) | 31.6 | –
15 | C[C@@]1(CO)Cc2cc(NC(=O)c3cnn4cccnc34)c(N3CCN(CC(F)F)CC3)nc2O1 (stereo in doubt) [Example 20, N-[rac-(2S)-6-[4-(2,2-difluoroethyl)piperazin-l-yl]-2-(hydroxymethyl)-2-methyl-3H-furo[2,3-b]pyridin-5-yl]pyrazolo[1,5-a]pyrimidine-3-carboxamide] | 9.1 | – | – | –
16 | C[C@]1(CO)Cc2cc(NC(=O)c3cnn4cccnc34)c(N3CCN(CC(F)F)CC3)nc2O1 (stereo in doubt) [Example 21, N-[rac-(2R)-6-[-(2,2-difluoroethyl)piperazin-l-yl]-2-(hydroxymethyl)-2-methyl-3H-furo[2,3-b]pyridin-5-yl]pyrazolo[1,5-a]pyrimidine-3-carboxamide] | 13 | 124 (≈ 58.7 µg/mL) | 27.0 | 0.363
17 | CC1(C)Cc2cc(NC(=O)c3cnn4cccnc34)c(N3CCC(CO)CC3)nc2O1 [Example 2, N-(6-(4-(Hydroxymethyl)piperidin-1-yl)-2,2-dimethyl-2,3-dihydrofuro[2,3-b]pyridin-5-yl)pyrazolo[1,5-a]pyrimidine-3-carboxamide] | 4.2 | – | – | 0.074
18 | Cc1cnc2c(C(=O)Nc3cc4c(nc3N3CCC(CO)CC3)OC(C)(C)C4)cnn2c1 [Example 3, N-(6-(4-(Hydroxymethyl)piperidin-1-yl)-2,2-dimethyl-2,3-dihydrofuro[2,3-b]pyridin-5-yl)-6-methylpyrazolo[1,5-a]pyrimidine-3-carboxamide] | 4.1 | 7.5 (≈ 3.27 µg/mL) | 7.5 | –
19 | CC1(C)Cc2cc(NC(=O)c3cnn4cccnc34)c(N3CCC(F)(CO)CC3)nc2O1 [Example 5, N-[6-[4-Fluoro-4-(hydroxymethyl)-1-piperidyl]-2,2-dimethyl-3H-furo[2,3-b]pyridin-5-yl]pyrazolo[1,5-a]pyrimidine-3-carboxamide] | 5.6 | 112 (≈ 49.3 µg/mL) | 43.1 | –
20 | CC1(C)Cc2cc(NC(=O)c3cnn4cccnc34)c(OCC3CC3)nc2O1 [Example 17, N-[6-(cyclopropylmethoxy)-2,2-dimethyl-3H-furo[2,3-b]pyridin-5-yl]pyrazolo[1,5-a]pyrimidine-3-carboxamide] | 6.4 | – | – | –

Source: patent US11434250B2, “Pyrazolo[1,5a]pyrimidine derivatives as IRAK4 modulators” (Genentech, Inc., priority 2017, dated 2022)
